Patent US11834663B2, “Fibrotic treatment” (Monash University, priority 2015, dated 2023)
Marks after values point to notes of the source that are not given here.

Tested on: cardiac cytokine protein levels
Experiment: Cardiac cytokine protein levels by Bio-Plex multiplex assay in aged WT mice
Assay type: in vivo, mouse
Description: There are 8 different sets of in vivo experiments in this study: • A) Phenotypic characterisation of the heart and blood vessels in global IRAP knockout mice and their WT controls treated for 4 weeks with Angiotensin (Ang) II (800 ng/kg/min; s.c.) where mouse hearts and blood vessels were compared to tissue obtained from young WT and IRAP^−/− mice treated with saline. • B) Prevention of Ang II-induced changes in the cardiovascular system following IRAP inhibitor treatment. In the prevention model, WT mice were treated with Ang II (800 ng/kg/min; s.c.)±the IRAP inhibitor (HFI-419; 500 ng/kg/min for 28 days) or HFI-vehicle (1 DMSO:3 HBC). • C) Phenotypic characterisation of the aged heart, kidney and blood vessels in the global IRAP knockout mice where aged WT and IRAP^−/− mouse hearts, kidneys and blood vessels were compared to tissue obtained from young WT and IRAP^−/− mice. • D) Reversal of the age-induced changes in the cardiovascular system following IRAP inhibitor treatment. In the reversal model, aged WT mice were treated with either saline, IRAP inhibitor (HFI-419 at 500 ng/kg/min; compound 1 at 500 ng/kg/min; compound 2 at 50 ng/kg/min) or HFI-vehicle (1 DMSO: 3 HBC) for 4 weeks. • E) Prevention of ischemic-reperfusion injury in isolated hearts taken from aged global IRAP knockout mice and aged IRAP inhibitor (HFI-419 at 500 ng/kg/min; s.c.) treated WT mice compared to age-matched vehicle-treated (1 DMSO:3 HBC; s.c.) WT controls. • F) Phenotypic characterization of cardiac function using echocardiography in the aged global IRAP knockout mice compared to aged and young WT mice. • G) Phenotypic characterization of liver steatosis in IRAP knockout mice in a high fat diet (HFD) model. • H) Reversal of the salt-induced fibrosis in the liver following IRAP inhibitor treatment.
The levels of cytokines in the heart ventricles and apex were detected by using the Bio-Plex multiplex assay (Bio-rad). Tissues were snap-frozen and homogenized with a Bio-Plex cell lysis kit (Biorad) according to the manufacturer's instructions. Briefly, tissues were washed once with 300 μl of wash buffer and homogenized in lysing solutions using Tissue Lyser (Qiagen). Samples were left on ice for 30 min and centrifuged at 6,000×g for 20 min at 4° C. Supernatant was collected and protein content was determined using Biorad protein assay (Biorad). 500 μg/ml of protein were used to detect the levels of cytokines. A panel of Bio-Plex Pro™ Mouse Cytokine Standard 23-Plex, Group I (IL-1α, IL-1β, IL-2, IL-3, IL-4, IL-5, IL-6, IL-9, IL-10, IL-12(p40), IL-12(p70), IL-13, IL-17A, Eotaxin, G-CSF, GM-CSF, IFN-γ, KC, MCP-1, MIP-1α, MIP-1β, RANTES, TNFα) was used, containing 23 different antibodies covalently coupled to the beads. 50 μl of sample (500 μg/ml) or known standard (200-900 μg/ml) was added to wells of a 96-well plate which was pre-coated with the diluted coupled beads specific for each antibody and incubated at RT with shaking at 300 RPM for 30 min in the dark. After washing away any unbound substances, biotinylated detection antibodies were added to create a sandwich complex and the plate was incubated for 30 min with shaking at 300 RPM in the dark at RT. Following three washes, the final detection complex was formed with the addition of streptavidin-phycoerythrin conjugate and incubated for 10 min in the dark at RT with shaking at 300 RPM. Following 3 washes with […], beads were resuspended in 125 μl of assay buffer. The samples were read using Bio-Plex MAGPIX Multiplex Reader (Bio-Plex Suspension System). Data were calculated by the Bio-Plex Manager software.

[1] = hearts of HFI-419-treated aged WT mice, mean ± s.e.m
[2] = relative ratio to mean of vehicle-treated aged WT

## CCOC(=O)C1=C(NC(C)=O)Oc2cc(O)ccc2C1c1cccnc1 (centres unmarked) [HFI-419]
Aged WT mice, HFI-419 4 weeks vs vehicle, FIG. 14, Table 1
  pro-inflammatory cytokines in heart: did not increase
Aged WT mice, HFI-419 4 weeks vs vehicle, Table 1
  anti-inflammatory cytokines in heart, including IL-4, IL-9 and IL-12p40: marked increases
[1]
  CCL-3 (MIP-1a) cardiac protein level: 2.493 ± 0.35 pg/mL
  CCL-4 (MIP-1b) cardiac protein level: 92.74 ± 10.92 pg/mL
  CCL-5 (RANTES) cardiac protein level: 2.839 ± 0.21 pg/mL
  CCL-11 (Eotaxin) cardiac protein level: 140.3 ± 8.18 pg/mL
  CXCL-1 (KC) cardiac protein level: 6.859 ± 0.34 pg/mL
  G-CSF cardiac protein level: 1.912 ± 0.08 pg/mL
  GM-CSF cardiac protein level: 38.18 ± 1.37 pg/mL
  IL-1a cardiac protein level: 7.61 ± 0.56 pg/mL
  IL-1b cardiac protein level: 69.83 ± 3.75 pg/mL
  IL-4 cardiac protein level: 2.676 ± 0.06 pg/mL
  IL-5 cardiac protein level: 3.96 ± 0.14 pg/mL
  IL-6 cardiac protein level: 2.766 ± 0.15 pg/mL
  IL-9 cardiac protein level: 557.8 ± 31.03 pg/mL
  IL-10 cardiac protein level: 40.13 ± 1.36 pg/mL
  IL-12 p40 cardiac protein level: 4.887 ± 0.28 pg/mL
  IL-12 p70 cardiac protein level: 23.49 ± 1.83 pg/mL
  IL-13 cardiac protein level: 90.19 ± 2.93 pg/mL
  IL-17A cardiac protein level: 8.068 ± 0.29 pg/mL
  L-2 cardiac protein level: 5.849 ± 0.78 pg/mL
  M-CSF (IL-3) cardiac protein level: 1.562 ± 0.11 pg/mL
  TNF-a cardiac protein level: 219.7 ± 9.76 pg/mL
[2]
  CCL-3 (MIP-1a) Ratio of HFI to Vehicle: 0.88
  CCL-4 (MIP-1b) Ratio of HFI to Vehicle: 0.78
  CCL-5 (RANTES) Ratio of HFI to Vehicle: 1.03
  CCL-11 (Eotaxin) Ratio of HFI to Vehicle: 1.29
  CXCL-1 (KC) Ratio of HFI to Vehicle: 1.18
  G-CSF Ratio of HFI to Vehicle: 1.02
  GM-CSF Ratio of HFI to Vehicle: 0.99
  IL-1a Ratio of HFI to Vehicle: 1.03
  IL-1b Ratio of HFI to Vehicle: 1.16
  IL-4 Ratio of HFI to Vehicle: 1.61**
  IL-5 Ratio of HFI to Vehicle: 0.98
  IL-6 Ratio of HFI to Vehicle: 0.98
  IL-9 Ratio of HFI to Vehicle: 1.19*
  IL-10 Ratio of HFI to Vehicle: 1.09
  IL-12 p40 Ratio of HFI to Vehicle: 1.31
  IL-12 p70 Ratio of HFI to Vehicle: 0.88
  IL-13 Ratio of HFI to Vehicle: 0.96
  IL-17A Ratio of HFI to Vehicle: 0.95
  L-2 Ratio of HFI to Vehicle: 1.12
  M-CSF (IL-3) Ratio of HFI to Vehicle: 1.02
  TNF-a Ratio of HFI to Vehicle: 0.92
